We go through 6 molecules from patent US9307761B2, “Microbial composition” (Rohm and Haas Company, priority 2011, dated 2016).

Structures are written as SMILES.

Common to all, as to assay type: cell-based
Experiment [1] deals with Staphylococcus aureus (10788 strain). Kind of experiment: Antimicrobial efficacy of actives against S. aureus in water, 15 seconds contact. The note with it: for MBC (minimum biocidal concentration): against S. Aureus, in water; for NMBS: S. aureus.
The test system of experiment [2] is Escherichia coli (10536 strain). Briefly: 15 seconds contact kill assay of actives in water, mean bacterial survival NMBS. Particulars: E. coli; for NMBS: alone, 15 seconds contact; for MBC (minimum biocidal concentration): in water, component alone.
The test system of experiment [3] is Escherichia coli (E. coli—ATCC #10536). Kind of experiment: Automated assessment of efficacy in model surfactant medium (2.85% sodium cocoyl glycinate and 1.85% sodium lauroamphoacetate), 15 seconds exposure, delta OD450/OD590. Particulars: for No. of replicates showing growth (out of 4) / Δ OD 450 nm = OD450 (time = 16 hours) − OD450 (time zero), Mean / Δ OD 590 nm OD590 (time = 16 hours) − OD590 (time zero), Mean: 15 s exposure; for MBC: Escherichia coli, ATCC10536, 15 s, in 2.85% sodium cocoyl glycinate + 1.85% sodium lauroamphoacetate solution at pH 10, E. coli, read-out: MBC (minimum biocidal concentration). The procedure:
Micobiocidal Activity of Actives as Per the Invention in a Model Surfactant Medium Test Methodology for Automated Assessment of Efficacy in Surfactant Base
Solutions were prepared such that the concentrations of the surfactant components and test actives were 1.1×the final desired concentration in order to allow for dilution with the bacterial inoculum in the test. The solutions were manually adjusted to […] by dropwise addition of sodium hydroxide solution, as measured with a pH meter at ambient temperature.
Tests were conducted using standard microtiter plate assays using an automated liquid handling system, 270 μl of the surfactant test solution was pipetted into each well of the microtitre plate and 30 μl of the bacterial suspension was then added. After exactly 15 seconds of bacterial exposure, a 30 μl volume of bacterial cells was withdrawn and transferred to 270 μl of D/E quench solution. After 5 minutes in the D/E quench, the optical density (OD) was measured for each plate in turn at two specific wavelengths (450 nm and 590 nm). These provide a dual check of antimicrobial activity, as the OD450 reading is specific for the yellow colour of D/E quench when bacterial growth is observed, whereas OD590 is specific for the initial purple colour of the D/E quench which is retained if no bacterial growth is observed. After the time zero OD measurements, plates were then incubated at 37° C. overnight (16 hours) before repeating the OD measurements. Delta OD values were calculated by subtracting […]. Bacterial growth is observed as art increase in OD450 and a decrease in ΔOD590. To identify antibacterially efficacious systems (those preventing appreciable bacterial growth after incubation), the following threshold changes in OD readings have been adopted: if (1). OD450 increases by less than 0.2 absorbance unit on incubation and (2). OD590 decreases by less than 0.35 unit on incubation. Conversely, where OD450 increases by more than 0.2 AU and OD590 decreases by more than 0.35 unit after incubation, corresponding to a colour shift from purple to yellow, the test system allows bacterial growth and is not deemed efficacious, four replicate measurements in the same plate have been made for each test system. The number of replicate wells showing either bacterial growth or no growth is also readily assessed by eye by following the colour change.
Dose responses for individual components and binary mixtures of actives at a fixed concentration ratio were generated by sequential dilution of liquors with further surfactant solution to obtain a series of endpoints.
In some selected cases, the combinations were also tested at the weight ratio 1:1.

Experiment [4] has the same test system. Briefly: Synergy tests: high resolution MBC microtiter plate assay, 15 seconds contact, phosphate buffer containing […] dipropylene glycol. Particulars: E. coli 10536; for MBC of the component acting alone (QA or QB): complete kill in 15 seconds; for SI (Synergy Index = Qa/QA + Qb/QB): at Qa and Qb, <1 synergy, 1 additivity, >1 antagonism. The source says: The concentrations and ratios may also vary under different test conditions or with different test methods.
One measure of synergy is the industrially accepted method described by Kull, F. C.; Eisman, P. C.; Sylwestrowicz, H. D. and Mayer, R. L., in Applied Microbiology 9:538-541 (1961), using the ratio determined by the formula: Qa/QA+Qb/QB=Synergy Index (“SI”) wherein: • QA=concentration of compound A (first component) in percent, acting alone, which produced an end point (MBC of Compound A). • Qa=concentration of compound A in percent, in the mixture, which produced an end point. • QB=concentration of compound B (second component) in percent, acting alone, which produced an end point (MBC of Compound B). • Qb=concentration of compound B in percent, in the mixture, which produced an end point.
When the sum of Qa/QA and Qb/QB is greater than one, antagonism is indicated. […] The lower the SI, the greater is the synergy shown by that particular mixture. The minimum biocidal concentration (MBC) of a microbicide is the lowest concentration tested under a specific set of conditions that provides complete kill of the tested microorganisms.
Synergy tests were conducted using standard microtiter plate assays with phosphate buffer containing 3.5% dipropylene glycol (DPG). In this method, a wide range of combinations of chemicals was tested by conducting high resolution MBC assays of Component (A) in the presence of various concentrations of Component (B). High resolution MBCs were determined by adding varying amounts of microbicide to one column of a microtiter plate and doing subsequent […] dilutions using an automated liquid handling system to obtain a series of closely spaced endpoints. The MBC plate was inoculated one column at a time with the test microorganism. An aliquot of the inoculated well was transferred at 15 seconds to a plate containing a neutralizing agent (D/E Neutralizing Broth), mixed and held for 5 minutes before being transferred to a growth plate containing trypticase soy broth (TSB). The TSB plate was incubated at 37° C. and read for the presence/absence of growth at 24 hours. The lowest level tested that provided complete kill (as evidenced by no growth in the microtitre plate) of the test organisms in 15 seconds is the minimum biocidal concentration (MBC).
The synergy of the combinations of the present invention was determined against a bacterium, Escherichia coli (E. coli—ATCC #10536), at a concentration of approximately 1×10^8 bacteria, per mL. This microorganism is representative of natural contaminants in many consumer and industrial applications.

For another experiment, the system named is S. aureus. Kind of experiment: Synergy of terpinyl alcohols with phenolic compounds in water against S. aureus, log reduction after 15 seconds contact. The procedure:
The procedure used was as follows:
Liquid actives were used directly. Solid actives were dissolved in alcohol and a 50% stock was made.
Preparation of Test Cultures:
The culture was grown overnight in Tryptone soya agar.
To 9 ml water the actives were added to give the desired concentration. 1 ml of the culture was added and mixed. After 15 seconds contact 1 ml aliquot was removed and added to a neutraliser and kept for 5 minutes. A control of untreated cells was similarly processed. It was then diluted and plated. The plates were incubated at 37° C. for 24 hours. The colonies on the plates were counted. The counts were converted to log10. The log no. of survivors was determined and log reduction calculated.

Where [5] appears, read: single active alone at 0.125% w/v, water.
The mark [6] stands for this setting: single active alone at 0.05% w/v, model surfactant solution.
Where [7] appears, read: single active alone at 0.1% w/v, model surfactant solution.
Setting [8] is: single active alone at […] w/v, model surfactant solution.
Where [9] appears, read: single active alone at 0.2% w/v, model surfactant solution.

In the case of `CCCc1ccccc1O` [2-n-propylphenol], the “MBC (minimum biocidal concentration)” value in experiment [1] came out at 0.25 % w/v; in experiment [2] it was 0.125 % w/v. Moreover, the MBC of phenol in experiment [1] (phenol alone, complete bacterial kill against S. aureus, water) was 0.25 % (w/v). The NMBS came to 7.30 log CFU/ml in experiment [1] (single active alone at 0.1% w/v, water); 7.19 log CFU/ml in experiment [1] (setting [5]); 0 log CFU/ml in experiment [1] (single active alone at […] w/v, water); 7.71 log CFU/ml in experiment [2] (0.05% w/v); 0 log CFU/ml in experiment [2] (0.125% w/v); 0 log CFU/ml in experiment [2] ([…] w/v). The “No. of replicates showing growth (out of 4)” value in experiment [3] (setting [6]), in experiment [3] (setting [7]) and in experiment [3] (setting [8]) was 4 in each case. For the same molecule, the figures for the “Δ OD 450 nm = OD450 (time = 16 hours) − OD450 (time zero), Mean” value (shortened to “Δ OD 450 nm = OD450”) in experiment [3] (setting [6]), in experiment [3] (setting [7]) and in experiment [3] (setting [8]) were −1.43, −1.42 and −1.15, respectively. Besides, the figures for the “Δ OD 590 nm OD590 (time = 16 hours) − OD590 (time zero), Mean” value (“Δ OD 590 nm OD590” below) in experiment [3] (setting [6]), in experiment [3] (setting [7]) and in experiment [3] (setting [8]) were 0.46, 0.46 and 0.66, respectively.

On to `CCCCc1ccc(O)cc1` [4-n-butylphenol], for which, in experiment [4], the “MBC of the component acting alone (QA or QB)” value is reported as 0.2 weight %. In addition, the results for the NMBS in experiment [2] (0.0125% w/v) and in experiment [2] ([…] w/v) were 7.85 log CFU/ml and 0 log CFU/ml, respectively. Moreover, the “MBC (minimum biocidal concentration)” value in experiment [2] is 0.25 % w/v. In addition, in experiment [3], the MBC is over 2000 µg/mL.

Regarding `CCC(C)c1ccc(O)cc1` (stereo not drawn) [4-sec butyl phenol], the “Log reduction S. aureus ATCC 6538” value in the experiment on S. aureus (phenolic compound alone at 0.05%) was 0.0.

`C=C(C)[C@@H]1CC=C(CO)CC1` [(4S)-(4-(prop-1-en-2-yl)cyclohex-1-enyl)methanol]: the “SI (Synergy Index = Qa/QA + Qb/QB)” value in experiment [4] is reported as 1.00. In experiment [1], the “MBC (minimum biocidal concentration)” value was over 1.0 % w/v. For the same molecule, the NMBS in experiment [1] (setting [5]) was determined as 7.19 log CFU/ml; in experiment [1] (single active alone at 0.4% w/v, water), 7.14 log CFU/ml; in experiment [1] (single active alone at 0.625% w/v, water), 7.15 log CFU/ml; in experiment [1] (single active alone at 1.0% w/v, water) it was 7.39 log CFU/ml. Further, the “MBC of terpene alcohol” value in experiment [1] (terpene alcohol alone, complete bacterial kill against S. aureus, water) is on record as 1.0 % (w/v); in experiment [3] (terpene alcohol alone, complete bacterial kill against E. coli, model surfactant solution), 0.4 % (w/v). Also, in experiment [3], the MBC is 4000 µg/mL.

As to `C/C=C/c1ccccc1O` [(E)-2-(prop-1-enyl)phenol], in experiment [4], the “SI (Synergy Index = Qa/QA + Qb/QB)” value is 1.00 and the “MBC of the component acting alone (QA or QB)” value was 0.8 weight %. For the same molecule, in experiment [3] (setting [7]), the “No. of replicates showing growth (out of 4)” value came to 4; the “Δ OD 450 nm = OD450” value is reported as −0.60; the “Δ OD 590 nm OD590” value is recorded as 0.59. Besides, in experiment [3] (setting [9]), the “No. of replicates showing growth (out of 4)” value came out at 4; the “Δ OD 450 nm = OD450” value is recorded as −0.53; the “Δ OD 590 nm OD590” value is on record as 0.63. Besides, in experiment [3] (setting [8]), the “No. of replicates showing growth (out of 4)” value is listed as 4; the “Δ OD 450 nm = OD450” value is recorded as −0.57; the “Δ OD 590 nm OD590” value came to 0.58.

On to `C=C(C)[C@@H]1CC=C(CO)CC1` [perillyl alcohol], for which the “Log reduction S. aureus ATCC 6538” value with S. aureus (terpinyl alcohol alone at […]) is on record as −0.6.
